The supplement of paper PMC10307832

What was measured:
Assay in all cases: relative viability (nuclei count vs DMSO), 5 days (fraction); higher = more cells survive
Erlotinib + Dasatinib = compound: C#Cc1cccc(Nc2ncnc3cc(OCCOC)c(OCCOC)cc23)c1 [Erlotinib] + Cc1nc(Nc2ncc(C(=O)Nc3c(C)cccc3Cl)s2)cc(N2CCN(CCO)CC2)n1 [Dasatinib] (partner 0.075 µM)
Procedure, shortened: (§1)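 Cells from lung cancer lines were seeded into 1536-well plates and, one day later, dosed by pin tool. Treatments were either a single drug or a fixed dose of an anchor drug with five library-drug doses (not always all listed) in √10 steps. After 5 days, nuclei were stained in a one-step fixation (final 0.05% Triton X-100, 1% formaldehyde, 1 ug/ml Hoechst) and counted on 4× images, and relative viability is the treated-to-vehicle nuclei ratio, as the median of duplicate plates.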

Erlotinib + Pemetrexed = compound: C#Cc1cccc(Nc2ncnc3cc(OCCOC)c(OCCOC)cc23)c1 [Erlotinib] + Nc1nc2[nH]cc(CCc3ccc(C(=O)N[C@@H](CCC(=O)O)C(=O)O)cc3)c2c(=O)[nH]1 [Pemetrexed] (partner 0.2 µM)
Procedure, shortened: as §1

AT9283 + Foretinib = compound: O=C(Nc1c[nH]nc1-c1nc2ccc(CN3CCOCC3)cc2[nH]1)NC1CC1 [AT9283] + COc1cc2c(Oc3ccc(NC(=O)C4(C(=O)Nc5ccc(F)cc5)CC4)cc3F)ccnc2cc1OCCCN1CCOCC1 [Foretinib] (partner 0.25 µM)
Procedure, shortened: as §1

AT9283 + Lapatinib = compound: O=C(Nc1c[nH]nc1-c1nc2ccc(CN3CCOCC3)cc2[nH]1)NC1CC1 [AT9283] + CS(=O)(=O)CCNCc1ccc(-c2ccc3ncnc(Nc4ccc(OCc5cccc(F)c5)c(Cl)c4)c3c2)o1 [Lapatinib] (partner 2 µM)
Procedure, shortened: as §1

AT9283 + Linsitinib = compound: O=C(Nc1c[nH]nc1-c1nc2ccc(CN3CCOCC3)cc2[nH]1)NC1CC1 [AT9283] + C[C@]1(O)C[C@@H](c2nc(-c3ccc4ccc(-c5ccccc5)nc4c3)c3c(N)nccn32)C1 [Linsitinib] (partner 1 µM)
Procedure, shortened: as §1

| Cell Line | relative viability (Erlotinib + Dasatinib; first compound 0.02 µM) | relative viability (Erlotinib + Dasatinib; first compound 0.2 µM) | relative viability (Erlotinib + Dasatinib; first compound 0.6325 µM) | relative viability (Erlotinib + Dasatinib; first compound 2 µM) | relative viability (Erlotinib + Pemetrexed; first compound 0.02 µM) | relative viability (Erlotinib + Pemetrexed; first compound 0.2 µM) | relative viability (Erlotinib + Pemetrexed; first compound 0.6325 µM) | relative viability (Erlotinib + Pemetrexed; first compound 2 µM) | relative viability (AT9283 + Foretinib; first compound 0.003 µM) | relative viability (AT9283 + Foretinib; first compound 0.03 µM) | relative viability (AT9283 + Foretinib; first compound 0.09487 µM) | relative viability (AT9283 + Foretinib; first compound 0.3 µM) | relative viability (AT9283 + Lapatinib; first compound 0.003 µM) | relative viability (AT9283 + Lapatinib; first compound 0.03 µM) | relative viability (AT9283 + Lapatinib; first compound 0.09487 µM) | relative viability (AT9283 + Lapatinib; first compound 0.3 µM) | relative viability (AT9283 + Linsitinib; first compound 0.003 µM) | relative viability (AT9283 + Linsitinib; first compound 0.03 µM) | relative viability (AT9283 + Linsitinib; first compound 0.09487 µM) | relative viability (AT9283 + Linsitinib; first compound 0.3 µM) |
| --- | --- | --- | --- | --- | --- | --- | --- | --- | --- | --- | --- | --- | --- | --- | --- | --- | --- | --- | --- | --- |
| SK-MES-1 | 0.338 | 0.175 | 0.177 | 0.156 | 1.07 | 0.519 | 0.545 | 0.418 | 0.924 | 0.863 | 0.604 | 0.143 | 0.427 | 0.547 | 0.349 | 0.263 | 1.07 | 0.933 | 0.846 | 0.17 |
| NCI-H838 | 0.29 | 0.308 | 0.288 | 0.317 | 0.263 | 0.253 | 0.233 | 0.266 | 1.05 | 0.427 | 0.262 | 0.281 | 0.98 | 0.225 | 0.18 | 0.182 | 1.01 | 0.247 | 0.217 | 0.197 |
| LXF-289 | 0.295 | 0.274 | 0.239 | 0.183 | 0.908 |  | 0.819 | 0.783 | 1 | 0.571 | 0.225 | 0.109 | 0.901 | 0.691 | 0.163 | 0.135 | 1 | 0.47 | 0.132 | 0.12 |
| SW 1573 | 0.764 |  | 0.463 | 0.41 | 0.886 | 0.746 | 0.865 | 0.805 | 0.621 | 0.423 | 0.239 | 0.233 | 1.15 | 0.494 | 0.188 | 0.244 | 0.917 | 0.413 | 0.223 | 0.184 |
| 201T | 0.646 | 0.548 | 0.543 | 0.541 | 0.339 | 0.336 | 0.348 | 0.32 | 1.12 | 1.07 | 0.274 | 0.247 | 0.816 | 0.96 | 0.904 | 0.409 | 1.02 | 1.02 | 0.8 | 0.409 |
| COR-L 105 | 0.302 | 0.173 | 0.182 | 0.122 | 0.967 | 0.835 | 0.535 | 0.352 | 0.847 | 0.673 | 0.249 | 0.361 | 0.371 | 0.256 | 0.223 | 0.337 | 0.854 | 0.333 | 0.221 | 0.288 |
| LOU-NH91 | 0.459 | 0.434 | 0.415 | 0.365 | 0.448 | 0.393 | 0.414 | 0.371 | 0.913 | 0.887 | 0.548 | 0.375 | 0.688 | 0.646 | 0.566 | 0.419 | 0.903 | 0.968 | 0.604 | 0.464 |
| PC-3 [JPC-3] | 0.937 | 0.627 | 0.352 | 0.29 | 0.719 | 0.477 | 0.488 | 0.37 | 1 | 0.974 | 0.591 | 0.543 | 0.444 | 0.436 | 0.422 | 0.304 | 0.94 | 1.03 | 0.74 | 0.521 |
| NCI-H1666 |  | 0.759 | 0.828 | 0.64 | 0.81 | 0.693 |  | 0.753 | 1.01 | 0.725 | 0.534 | 0.496 | 0.634 | 0.386 | 0.243 | 0.321 | 0.964 | 0.779 | 0.265 | 0.355 |
| EPLC-272H | 0.461 | 0.217 | 0.358 | 0.279 | 0.385 | 0.329 | 0.29 | 0.371 | 0.622 | 0.217 | 0.12 | 0.123 | 0.854 | 0.975 | 0.319 | 0.137 | 1.26 | 1.25 | 0.973 | 0.183 |
| HCC-15 | 0.66 | 0.612 | 0.605 | 0.533 | 0.241 | 0.225 | 0.249 | 0.215 | 1.02 | 0.397 | 0.161 | 0.19 | 0.745 | 0.37 | 0.159 | 0.142 | 0.831 | 0.424 | 0.155 | 0.146 |
